Source: patent US20050106292A1, “High moisture, shelf-stable acidulated food products” (priority 2003, published 2005)

Assay: Contact of acidic solution with human skin
Type: in vivo
Conditions: solution with a pH of less than 0.5

In the case of O=S(=O)(O)O [sulfuric acid], the “irritation or injury of the hand put into the solution” value was “an irritation would occur”.
